Data taken from patent US20160038518A1, “METHODS FOR TREATING PSORIASIS AND VASCULAR INFLAMMATION” (VASCULAR BIOGENICS LTD., priority 2012, published 2016).

How the values were obtained:
[1] = tested on: vascular inflammation of carotid arteries and ascending aorta in patients with moderate to severe plaque psoriasis; experiment: 18-FDG PET/CT sub-study of phase 2 trial: vascular inflammation as target to background ratio (TBR); assay type: in vivo, human; conditions: 12 weeks
Source text: This study was a sub-study of the above phase 2, randomized, double-blind, multicenter trial, of patients (aged 18-75) with moderate to severe plaque psoriasis, see also infra at Example 3. […] In addition, patients enrolled into the sub-study had to have the presence or history of one of the following: non-insulin dependent diabetes mellitus (NIDDM), peripheral vascular disease (PVD), smoker, hypertension, ischemic heart disease or cerebrovascular disease; obesity (BMI ≧25), hypercholesterolemia (LDL>160 mg/dL or taking anti-hyperlipidemia treatment), or family history of ischemic heart disease (in brother or father before age 55, in sister or mother before age 65) or at least 40 years of age with a history of psoriasis for at least 7 years. Patients were randomly assigned (1:1:1) to receive VB-201 20 mg, VB-201 80 mg or placebo for 12 weeks. The primary endpoint was the maximum TBR in the most diseased segment (MDS) of an index vessel at 12 weeks (percent change from baseline). The effect of treatment with 20 mg per day and 80 mg per day VB-201 on carotid arteries and ascending aorta inflammation was examined. Inflammation was measured by positron emission computed tomography (PET-CT) to quantify 18-fluorodeoxyglucose (18-FDG) uptake as a target to background ratio (TBR).
[…] imaging was performed following an overnight fast using a PET-CT scanner system with CT attenuation correction. 18-FDG was administered intravenously at a dose of 370 MBq and PET images were acquired approximately 90 minutes after injection. Baseline scans were evaluated and all inflammatory plaques in the left and right carotid arteries and ascending aorta were identified and totaled for each treatment group. PET scans were performed at Harvard Medical School and Massachusetts General Hospital, Boston, Mass., USA and at Translational and Molecular Imaging Institute and Department of Radiology, Mount Sinai School of Medicine, New York, N.Y., USA. All scans were analyzed by a central reader at the Mount Sinai center in New York City. The TBR was calculated from the ratio of the standard uptake values (SUV) of the target compared to background venous activity:
TBR (Target Background Ratio)=Target activity SUVTarget/SUV Background Venous Activity
The baseline and 12-week PET/CT datasets for each patient were structurally co-registered with each other, and FDG uptake was compared across each patient's images within pre-defined sections of the target vessels. For the aorta, measurements were made every 3 mm, starting 1 cm above the aortic valve annulus, continuing to the bottom of the aortic arch. For the right and left carotids, measurements were made every 3 mm, starting at the level of the carotid artery bifurcation, and continuing inferiorly 4 cm into the common carotid artery. Measurements were made in the axial plane by drawing a region of interest (ROI) around the artery wall and the maximum standardized uptake value (SUV) was recorded as the time- and dose-corrected tissue radioactivity divided by body weight. This represented the values for the target tissue. For the carotid arteries, the SUV Mean from the lumen of the jugular vein was used in at least 10 consecutive slices (at least 5 on each side). For the aorta, the background SUVMean from the atrium or SVC was used in at least 10 consecutive slices.
All statistical tests were two-sided with a significance level of 5%, unless specified otherwise, and were performed using SASS Version 9.2. Data was summarized using descriptive statistics (number of patients [N], mean, standard deviation [SD], median, minimum, and maximum).
Subjects were scanned by PET-CT to determine baseline 18-FDG uptake, and those with a TBR of at least 1.6 in either the carotid artery or the ascending aorta were selected. After screening and establishment of a baseline, eligible subjects were randomly assigned to receive 20 mg per day VB-201, 80 mg per day VB-201 or a daily placebo, for a period of 12 weeks. […]

human CD 14+ monocytes = conditions: VB-201 5 μg/ml prior to chemotaxis assay; MCP-1 (50 ng/ml), MIP-1a (50 ng/ml) or RANTES (100 ng/ml); FIG. 1A
[2] = 80 mg group, patients not taking concomitant statins
[3] = patients taking statins (6 on 20 mg and 6 on 80 mg), p=0.01

SMILES: CCCCCCCCCCCCCCCCOC[C@H](COP(=O)([O-])OCC[N+](C)(C)C)OCCCCC(=O)O [VB-201, 1-hexadecyl-2-(4′-carboxy)butyl-sn-glycero-3-phosphocholine]
- change from baseline in 18-FDG-PET MDS TBR of the index vessel ([1]; 20 mg/day, p=0.14): −7.3%
- mean change from baseline of the maximum TBR in the MDS in the index vessel [1, 2]: −0.39
- percent change from baseline of the maximum TBR in the MDS in the index vessel [1, 2]: −8.84%
- change from baseline in 18-FDG-PET MDS TBR of the index vessel ([1]; 80 mg/day, p=0.04): −12.7%
- dose response of TBR change across quartiles of VB-201 trough blood levels ([1]; p=0.037, FIG. 5): A dose response was seen
- reduction from baseline in vascular inflammation based on PET-CT measure ([1]; VB-201 80 mg group, p=0.04): 12.7%
- reduction from baseline in vascular inflammation based on PET-CT measure ([1]; combined VB-201 treated group, p=0.01): 9.8%
- inflammation of the ascending aorta (18-FDG uptake) ([1]; one patient with breast implants, 20 mg/day, FIG. 6): inflammation of the aorta in the patient was also reduced
- mean change from baseline of the maximum TBR in the MDS in the index vessel [1, 3]: −0.74
- percent change from baseline of the maximum TBR in the MDS in the index vessel [1, 3]: −18.48%
- human monocyte migration towards chemoattractants (human CD 14+ monocytes): decreases human monocyte migration
